Laboratory results reported in the NIST ThermoML archive (doi:10.1021/acs.jced.5b00662).
Numbers after ± are expanded uncertainties.

test: refractive index (Na D-line) (dimensionless); details: 293.15 K; 101.33 kPa; Liquid; Standard Abbe refractometry

Row | refractive index | SMILES
1 | 1.40802 ± 0.00066 | COCCOCCOC [2,5,8-trioxanonane]
2 | 1.43167 ± 0.00058 | OCCO [1,2-ethanediol]

Row | SMILES | refractive index
3 | OCCOCCO [diethylene glycol] | 1.44702 ± 0.00061

same assay, conditions: 298.15 K; 101.33 kPa; Liquid; Standard Abbe refractometry

Row | SMILES | refractive index
4 | COCCOCCOCCOCCOC [2,5,8,11,14-pentaoxapentadecane] | 1.42992 ± 0.00061
5 | COCCOCCO [2-(2-methoxyethoxy)ethanol] | 1.4239 ± 0.00061
6 | OCCOCCO [diethylene glycol] | 1.4454 ± 0.00061

Now from value to molecule:

Row | refractive index | SMILES
7 | 1.42071 ± 0.00061 | COCCOCCOCCOC [2,5,8,11-tetraoxadodecane]
8 | 1.40579 ± 0.00066 | COCCOCCOC [2,5,8-trioxanonane]
9 | 1.43 ± 0.00058 | OCCO [1,2-ethanediol]

same assay, conditions: 303.15 K; 101.33 kPa; Liquid; Standard Abbe refractometry

Row | SMILES | refractive index
10 | COCCOCCOCCOCCOC [2,5,8,11,14-pentaoxapentadecane] | 1.42777 ± 0.00061
11 | COCCOCCO [2-(2-methoxyethoxy)ethanol] | 1.42174 ± 0.00061
12 | OCCOCCO [diethylene glycol] | 1.44379 ± 0.00061

Now from value to molecule:

Row | refractive index | SMILES
13 | 1.41862 ± 0.00061 | COCCOCCOCCOC [2,5,8,11-tetraoxadodecane]
14 | 1.40359 ± 0.00066 | COCCOCCOC [2,5,8-trioxanonane]
15 | 1.42855 ± 0.00058 | OCCO [1,2-ethanediol]

same assay, conditions: 313.15 K; 101.33 kPa; Liquid; Standard Abbe refractometry

Row | SMILES | refractive index
16 | COCCOCCOCCOCCOC [2,5,8,11,14-pentaoxapentadecane] | 1.42373 ± 0.00061
17 | COCCOCCO [2-(2-methoxyethoxy)ethanol] | 1.41733 ± 0.00061
18 | OCCOCCO [diethylene glycol] | 1.44068 ± 0.00061

Results, then the molecule that gave them:

Row | refractive index | SMILES
19 | 1.41434 ± 0.00061 | COCCOCCOCCOC [2,5,8,11-tetraoxadodecane]
20 | 1.39921 ± 0.00066 | COCCOCCOC [2,5,8-trioxanonane]
21 | 1.42562 ± 0.00058 | OCCO [1,2-ethanediol]

same assay, conditions: 323.15 K; 101.33 kPa; Liquid; Standard Abbe refractometry

Row | SMILES | refractive index
22 | COCCOCCOCCOCCOC [2,5,8,11,14-pentaoxapentadecane] | 1.41973 ± 0.00061
23 | COCCOCCO [2-(2-methoxyethoxy)ethanol] | 1.41368 ± 0.00061
24 | OCCOCCO [diethylene glycol] | 1.43745 ± 0.00061

More lines, now with the values ahead:

Row | refractive index | SMILES
25 | 1.41005 ± 0.00061 | COCCOCCOCCOC [2,5,8,11-tetraoxadodecane]
26 | 1.3949 ± 0.00066 | COCCOCCOC [2,5,8-trioxanonane]
27 | 1.4226 ± 0.00058 | OCCO [1,2-ethanediol]

same assay, conditions: 333.15 K; 101.33 kPa; Liquid; Standard Abbe refractometry

Row | SMILES | refractive index
28 | COCCOCCOCCOCCOC [2,5,8,11,14-pentaoxapentadecane] | 1.41578 ± 0.00061
29 | COCCOCCO [2-(2-methoxyethoxy)ethanol] | 1.4101 ± 0.00061
30 | OCCOCCO [diethylene glycol] | 1.43424 ± 0.00061

Next, values leading:

Row | refractive index | SMILES
31 | 1.40579 ± 0.00061 | COCCOCCOCCOC [2,5,8,11-tetraoxadodecane]
32 | 1.3905 ± 0.00066 | COCCOCCOC [2,5,8-trioxanonane]
33 | 1.41955 ± 0.00058 | OCCO [1,2-ethanediol]

same assay, conditions: 343.15 K; 101.33 kPa; Liquid; Standard Abbe refractometry

Row | SMILES | refractive index
34 | COCCOCCOCCOCCOC [2,5,8,11,14-pentaoxapentadecane] | 1.41174 ± 0.00061
35 | COCCOCCO [2-(2-methoxyethoxy)ethanol] | 1.40635 ± 0.00061
36 | OCCOCCO [diethylene glycol] | 1.43105 ± 0.00061

Other lines, results leading:

Row | refractive index | SMILES
37 | 1.40153 ± 0.00061 | COCCOCCOCCOC [2,5,8,11-tetraoxadodecane]
38 | 1.38623 ± 0.00066 | COCCOCCOC [2,5,8-trioxanonane]
39 | 1.41655 ± 0.00058 | OCCO [1,2-ethanediol]

same assay, conditions: 353.15 K; 101.33 kPa; Liquid; Standard Abbe refractometry

Row | SMILES | refractive index
40 | COCCOCCOCCOCCOC [2,5,8,11,14-pentaoxapentadecane] | 1.40773 ± 0.00061
41 | COCCOCCO [2-(2-methoxyethoxy)ethanol] | 1.40241 ± 0.00061
42 | OCCOCCO [diethylene glycol] | 1.42786 ± 0.00061

Second part, the molecule after the results:

Row | refractive index | SMILES
43 | 1.39723 ± 0.00061 | COCCOCCOCCOC [2,5,8,11-tetraoxadodecane]
44 | 1.38178 ± 0.00066 | COCCOCCOC [2,5,8-trioxanonane]
45 | 1.41351 ± 0.00058 | OCCO [1,2-ethanediol]
